29 compounds from US20200079758A1, “[4-(PHENYLSULFONYL)PIPERAZIN-1-YL](1H-1,2,3-TRIAZOL-4-YL)METHANONES” (priority 2016, published 2020) can be followed below.

For this assay, the target named is T1, recombinant human AKR1C3 (Homo sapiens, UniProt P42330).
T1 construct: GST (cleaved yes); made in house; host or cells: E. coli
T1 sequence (P42330 1-323): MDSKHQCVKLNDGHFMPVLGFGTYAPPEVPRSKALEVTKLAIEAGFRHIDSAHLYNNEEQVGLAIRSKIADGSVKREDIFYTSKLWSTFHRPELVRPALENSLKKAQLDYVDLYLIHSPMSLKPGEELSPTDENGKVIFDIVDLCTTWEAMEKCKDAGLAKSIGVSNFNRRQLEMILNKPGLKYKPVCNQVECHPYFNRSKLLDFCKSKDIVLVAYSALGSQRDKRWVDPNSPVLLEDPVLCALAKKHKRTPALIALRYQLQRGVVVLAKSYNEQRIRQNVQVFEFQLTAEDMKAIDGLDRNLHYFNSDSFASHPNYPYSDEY
In words: AKR1C3-inhibitory activity assay (generation of Coumberol from Coumberone). It counts as biochemical. Particulars: Coumberone 0.3 μM, NADPH 10 μM, 22° C., typically 90 min, average or median values. The essentials: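 Recombinant human AKR1C3 (E. coli GST fusion, GST removed; ~1 nM) preincubated 15 min with compound, then NADPH 10 μM and Coumberone 0.3 μM (final), 22 °C, typically 90 min, in 50 mM K-phosphate pH 7. Stopped with EM-1404 (1 μM final); Coumberol fluorescence read at 520 nm (ex 380 nm), normalized to no-inhibitor and no-enzyme controls.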
Broadly, the IC50 is the midpoint of a concentration-inhibition curve. As for `CC1(C)CN(C(=O)c2cnn[nH]2)CCN1S(=O)(=O)c1cccc([N+](=O)[O-])c1` [Example 112, {3,3-dimethyl-4-[(3-nitrophenyl)sulfonyl]piperazin-1-yl}(1H-1,2,3-triazol-5-yl)methanone], the IC50 was 24 nM.

Consider `Cc1cc(C)c(S(=O)(=O)N2CCN(C(=O)c3cnn[nH]3)CC2(C)C)c(C)c1` [Example 113, {3,3-dimethyl-4-[(2,4,6-trimethylphenyl)sulfonyl]piperazin-1-yl}(1H-1,2,3-triazol-5-yl)methanone], for which the IC50 amounted to 39 nM.

As for `CC1(C)CN(C(=O)c2cnn[nH]2)CCN1S(=O)(=O)c1ccccc1[N+](=O)[O-]` [Example 114, {3,3-dimethyl-4-[(2-nitrophenyl)sulfonyl]piperazin-1-yl}(1H-1,2,3-triazol-5-yl)methanone], the IC50 worked out at 10 nM.

Take `COc1ccc(OC)c(S(=O)(=O)N2CCN(C(=O)c3cnn[nH]3)CC2(C)C)c1` [Example 115, {4-[(2,5-dimethoxyphenyl)sulfonyl]-3,3-dimethylpiperazin-1-yl}(1H-1,2,3-triazol-5-yl)methanone]: the IC50 was 208 nM.

Regarding `CC1(C)CN(C(=O)c2cnn[nH]2)CCN1S(=O)(=O)c1ccc(Cl)c(Cl)c1` [Example 116, {4-[(3,4-dichlorophenyl)sulfonyl]-3,3-dimethylpiperazin-1-yl}(1H-1,2,3-triazol-5-yl)methanone], the IC50 is 2 nM.

Consider `Cc1cccc(Cl)c1S(=O)(=O)N1CCN(C(=O)c2cnn[nH]2)CC1(C)C` [Example 117, {4-[(2-chloro-6-methylphenyl)sulfonyl]-3,3-dimethylpiperazin-1-yl}(1H-1,2,3-triazol-5-yl)methanone], for which the concentration for half-maximal inhibition (IC50) is 4 nM.

Take `COc1ccc(S(=O)(=O)N2CCN(C(=O)c3cnn[nH]3)CC2(C)C)cc1OC` [Example 118, {4-[(3,4-dimethoxyphenyl)sulfonyl]-3,3-dimethylpiperazin-1-yl}(1H-1,2,3-triazol-5-yl)methanone]: the IC50 is 77 nM.

`CC1(C)CN(C(=O)c2cnn[nH]2)CCN1S(=O)(=O)c1cccc(Cl)c1Cl` [Example 119, {4-[(2,3-dichlorophenyl)sulfonyl]-3,3-dimethylpiperazin-1-yl}(1H-1,2,3-triazol-5-yl)methanone]: the half-inhibitory concentration (IC50) stood at 9 nM.

As to `CC1(C)CN(C(=O)c2cnn[nH]2)CCN1S(=O)(=O)c1ccc(C#N)cc1` [Example 120, 4-{[2,2-dimethyl-4-(1H-1,2,3-triazol-5-ylcarbonyl)piperazin-1-yl]sulfonyl}benzonitrile], the IC50 was 263 nM.

For `CC1(C)CN(C(=O)c2cnn[nH]2)CCN1S(=O)(=O)c1cccc2nsnc12` [Example 121, [4-(2,1,3-benzothiadiazol-4-ylsulfonyl)-3,3-dimethylpiperazin-1-yl](1H-1,2,3-triazol-5-yl)methanone], the IC50 is 29 nM.

With `CC1(C)CN(C(=O)c2cnn[nH]2)CCN1S(=O)(=O)c1cccc2nonc12` [Example 122, [4-(2,1,3-benzoxadiazol-4-ylsulfonyl)-3,3-dimethylpiperazin-1-yl](1H-1,2,3-triazol-5-yl)methanone], the IC50 is 35 nM.

On to `CC1(C)CN(C(=O)c2cnn[nH]2)CCN1S(=O)(=O)c1c(Cl)cc(Cl)cc1Cl` [Example 123, {3,3-dimethyl-4-[(2,4,6-trichlorophenyl)sulfonyl]piperazin-1-yl}(1H-1,2,3-triazol-5-yl)methanone], for which the IC50 was found to be 12 nM.

`COc1ccc(Cl)cc1S(=O)(=O)N1CCN(C(=O)c2cnn[nH]2)CC1(C)C` [Example 124, {4-[(5-chloro-2-methoxyphenyl)sulfonyl]-3,3-dimethylpiperazin-1-yl}(1H-1,2,3-triazol-5-yl)methanone]: the IC50 came to 96 nM.

Turning to `CC1(C)CN(C(=O)c2cnn[nH]2)CCN1S(=O)(=O)c1ccc2nsnc2c1` [Example 125, [4-(2,1,3-benzothiadiazol-5-ylsulfonyl)-3,3-dimethylpiperazin-1-yl](1H-1,2,3-triazol-5-yl)methanone], the IC50 turned out to be 25 nM.

Turning to `CC1(C)CN(C(=O)c2cnn[nH]2)CCN1S(=O)(=O)c1ccc(F)c(F)c1F` [Example 126, {3,3-dimethyl-4-[(2,3,4-trifluorophenyl)sulfonyl]piperazin-1-yl}(1H-1,2,3-triazol-5-yl)methanone], the half-maximal inhibitory concentration (IC50) is 46 nM.

Regarding `CC1(C)CN(C(=O)c2cnn[nH]2)CCN1S(=O)(=O)c1cc(Cl)ccc1F` [Example 127, {4-[(5-chloro-2-fluorophenyl)sulfonyl]-3,3-dimethylpiperazin-1-yl}(1H-1,2,3-triazol-5-yl)methanone], the IC50 turned out to be 4 nM.

Consider `CC1(C)CN(C(=O)c2cnn[nH]2)CCN1S(=O)(=O)c1cc(F)c(F)cc1F` [Example 128, {3,3-dimethyl-4-[(2,4,5-trifluorophenyl)sulfonyl]piperazin-1-yl}(1H-1,2,3-triazol-5-yl)methanone], for which the IC50 came to 18 nM.

Turning to `Cc1ccc(Cl)cc1S(=O)(=O)N1CCN(C(=O)c2cnn[nH]2)CC1(C)C` [Example 129, {4-[(5-chloro-2-methylphenyl)sulfonyl]-3,3-dimethylpiperazin-1-yl}(1H-1,2,3-triazol-5-yl)methanone], the IC50 was found to be 6 nM.

Turning to `COc1ccccc1S(=O)(=O)N1CCN(C(=O)c2cnn[nH]2)CC1(C)C` [Example 130, {4-[(2-methoxyphenyl)sulfonyl]-3,3-dimethylpiperazin-1-yl}(1H-1,2,3-triazol-5-yl)methanone], the IC50 is 38 nM.

For the compound `COC(=O)c1cccc(S(=O)(=O)N2CCN(C(=O)c3cnn[nH]3)CC2(C)C)c1` [Example 131, methyl 3-{[2,2-dimethyl-4-(1H-1,2,3-triazol-5-ylcarbonyl)piperazin-1-yl]sulfonyl}benzoate], the IC50 stood at 204 nM.

With `CC1(C)CN(C(=O)c2cnn[nH]2)CCN1S(=O)(=O)c1ccc2c(c1)OCO2` [Example 132, [4-(1,3-benzodioxol-5-ylsulfonyl)-3,3-dimethylpiperazin-1-yl](1H-1,2,3-triazol-5-yl)methanone], the IC50 was found to be 22 nM.

For `COc1cc(C)ccc1S(=O)(=O)N1CCN(C(=O)c2cnn[nH]2)CC1(C)C` [Example 133, {4-[(2-methoxy-4-methylphenyl)sulfonyl]-3,3-dimethylpiperazin-1-yl}(1H-1,2,3-triazol-5-yl)methanone], the IC50 was 16 nM.

Consider `CC1(C)CN(C(=O)c2cnn[nH]2)CCN1S(=O)(=O)c1cccc(Cl)c1C#N` [Example 134, 2-chloro-6-{[2,2-dimethyl-4-(1H-1,2,3-triazol-5-ylcarbonyl)piperazin-1-yl]sulfonyl}benzonitrile], for which the IC50 worked out at 7 nM.

With `CC1(C)CN(C(=O)c2cnn[nH]2)CCN1S(=O)(=O)c1cccc2c1OCC2` [Example 135, [4-(2,3-dihydro-1-benzofuran-7-ylsulfonyl)-3,3-dimethylpiperazin-1-yl](1H-1,2,3-triazol-5-yl)methanone], the IC50 turned out to be 4 nM.

As for `CC1(C)CN(C(=O)c2cnn[nH]2)CCN1S(=O)(=O)c1cc(F)ccc1Cl` [Example 136, {4-[(2-chloro-5-fluorophenyl)sulfonyl]-3,3-dimethylpiperazin-1-yl}(1H-1,2,3-triazol-5-yl)methanone], the IC50 is 5 nM.

Regarding `CC1(C)CN(C(=O)c2cnn[nH]2)CCN1S(=O)(=O)c1cccc(F)c1Cl` [Example 137, {4-[(2-chloro-3-fluorophenyl)sulfonyl]-3,3-dimethylpiperazin-1-yl}(1H-1,2,3-triazol-5-yl)methanone], the IC50 came out at 19 nM.

In the case of `COc1cc(F)ccc1S(=O)(=O)N1CCN(C(=O)c2cnn[nH]2)CC1(C)C` [Example 138, {4-[(4-fluoro-2-methoxyphenyl)sulfonyl]-3,3-dimethylpiperazin-1-yl}(1H-1,2,3-triazol-5-yl)methanone], the IC50 came out at 23 nM.

On to `COc1ccc(C#N)cc1S(=O)(=O)N1CCN(C(=O)c2cnn[nH]2)CC1(C)C` [Example 139, 3-{[2,2-dimethyl-4-(1H-1,2,3-triazol-5-ylcarbonyl)piperazin-1-yl]sulfonyl}-4-methoxybenzonitrile], for which the IC50 came out at 285 nM.

Turning to `Cc1cc(Cl)cc(S(=O)(=O)N2CCN(C(=O)c3cnn[nH]3)CC2(C)C)c1` [Example 140, {4-[(3-chloro-5-methylphenyl)sulfonyl]-3,3-dimethylpiperazin-1-yl}(1H-1,2,3-triazol-5-yl)methanone], the IC50 turned out to be 2 nM.
